Data taken from US8546404B2, “Compounds that are ERK inhibitors” (Merck Sharp & Dohme, priority 2005, dated 2013).

What was measured:
[1] = target: fully phosphorylated, active Mouse ERK2 protein (Mus musculus (Mouse), UniProt P63085); test: Active ERK2 Assay (IMAP format); type: biochemical; conditions: read-out: AERK2 IC50
Description: Activated ERK2 activity was also determined in the IMAP assay format using the procedure outlined above. […] Reactions proceeded for 30 minutes before termination by addition of 60 μl IMAP detection beads in binding buffer. Plates were read as above after 30 minute binding equilibration.

[2] = Cassette Accelerating Rapid Rat Screen (CARRS), AUC during the first 6 hours; type: in vivo, Male Sprague-Dawley rats; conditions: male, Sprague-Dawley, plasma, 10 mg/kg, PO, AUC during the first 6 hours (AUC6hr)
Description: The AUC (Area Under the Concentration-Time Curve During the First 6 Hours (AUC6hr) in Table 30 Below was Determined Using the Protocol of Cassette Accelerating Rapid Rat Screen (CARRS)
Animal Dosing and Sample Collection
Male Sprague-Dawley rats (Charles River, Co.) were pre-cannulated (femoral artery) in order to facilitate precise blood sampling times, and to reduce the stress on the animals caused by serial bleedings. Following an overnight fast, two rats were dosed orally with one compound at a dose of 10 mg/kg in a 5-mL/kg dose volume. Blood was collected into heparin-containing tubes serially from each animal at 0.5, 1, 2, 3, 4 and 6 h post-dosing and centrifuged to generate plasma. Approximately 100 μL of plasma were collected at the individual time points. The plasma samples were stored at −20° C. until analysis.
Plasma Sample and Standard Curve Preparation
A set of 12 rat plasma samples was generated for each NCE (i.e. 6 timepoints and n=2 rats). These 12 samples were pooled across the two rats at each timepoint to provide 6 pooled samples (one sample per time point) for each NCE. The pooled samples were assayed as cassettes of six (36 samples total) to provide data on the six compounds. The 50-μL aliquots of the 36 plasma samples were placed into individual wells of a 96-well plate. An additional compound (often a structural analog of the test compounds) was selected as the internal standard. A mini-calibration curve was prepared (three points plus a zero) for each compound assayed. Drug-free rat plasma was measured into 1-mL aliquots and each aliquot was spiked with known concentrations of the compounds to generate standards of the desired concentrations. The concentrations of the standards were chosen to bracket the expected concentration of the pooled samples based on historical data from previous studies on other compounds. For this work, the standards were set to contain concentrations of 25, 250 and 2500 ng NCE/mL plasma. The plasma standards were precipitated in duplicate along with the samples. Protein precipitation occurred after addition of 150 μL of acetonitrile containing the internal standard at a concentration of 1 ng/mL into each sample well using the Tomtec Quadra 96 system. The precipitated samples and standards were vortexed and centrifuged in the 96-well plate. Approximately 50-100 μL of the supernatant were removed and placed into a fresh 96-well plate using the Tomtec Quadra 96 system. A volume of 5-10 μL of the supernatant was used for analysis by HPLC-MS/MS. The mini-standard curve was run in duplicate, once before and once after the samples. Thus, a total of 14 study samples plus standards were analyzed per compound. In addition, solvent blanks were injected before and after each set of 14 and after the highest calibration standard for each compound; therefore, a total of 103 injections were made into each HPLC system for each set of six compounds. Multiple solvent blank injections could be made from a single well. Twelve solvent blank wells were designated in each 96-well plate. Thus, one batch (cassette) of six NCEs was prepared and assayed using one 96-well plate format.
All the compounds were analyzed using selected reaction monitoring (SRM) methods with LC/MS/MS instruments. Once the method development had been completed, the assay was quickly set up using a standard injection sequence template for the CARRS assay.

Sequence of fully phosphorylated, active Mouse ERK2 protein (P63085 whole entry): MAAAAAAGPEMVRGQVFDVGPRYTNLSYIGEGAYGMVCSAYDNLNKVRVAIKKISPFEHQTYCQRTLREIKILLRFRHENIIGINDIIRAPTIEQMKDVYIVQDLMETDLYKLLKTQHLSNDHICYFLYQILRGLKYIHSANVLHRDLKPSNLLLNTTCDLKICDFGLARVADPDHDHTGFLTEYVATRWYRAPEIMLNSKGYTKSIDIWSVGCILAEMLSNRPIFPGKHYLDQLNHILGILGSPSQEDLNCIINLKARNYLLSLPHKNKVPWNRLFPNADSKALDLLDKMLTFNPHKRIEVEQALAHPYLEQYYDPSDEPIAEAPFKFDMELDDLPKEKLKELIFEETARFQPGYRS

IC50 [1] | AUC [2] | Compound
20 nM | 1.1 µM·h | CO[C@@]1(C(=O)Nc2ccc3[nH]nc(-c4ccc(F)cc4)c3c2)CCN(CC(=O)N2CC=C(c3ccc(-c4ncccn4)cc3F)CC2)C1 [Example 825]
5 nM | 1.13 µM·h | CCNc1nnc(-c2ccc(C3=CCN(C(=O)CN4CC[C@@](OC)(C(=O)Nc5ccc6[nH]nc(-c7ccc(F)cc7)c6c5)C4)CC3)c(F)c2)o1 [Example 622, 1-(2-{4-[4-(5-Ethylamino-[1,3,4]oxadiazol-2-yl)-2-fluoro-phenyl]-3,6-dihydro-2H-pyridin-1-yl}-2-oxo-ethyl)-3-methoxy-pyrrolidine-3-carboxylic acid [3-(4-fluoro-phenyl)-1 indazol-5-yl]-amide]
9.1 nM | 2.2 µM·h | CO[C@@]1(C(=O)Nc2ccc3[nH]nc(-c4ccc(F)cc4)c3c2)CCN(CC(=O)N2CCC(c3ccc(-c4ncccn4)cc3)CC2)C1 [Example 479]

Compound | IC50 [1] | AUC [2]
CO[C@@]1(C(=O)Nc2ccc3[nH]nc(-c4ccnc(C5CC5)c4)c3c2)CCN(CC(=O)N2CC=C(c3ccc(-c4ncccn4)cc3)CC2)C1 [Example 459] | 2.5 nM | 1.2 µM·h
